Assay results reported in PMC6199744, “Development of Chemical Proteomics for the Folateome and Analysis of the Kinetoplastid Folateome” (ACS Infectious Diseases, 2018).

Tested on: L. major lysate proteins
Assay: Multitargeted bead mixture chemoproteomics, single concentration competition, proteome-wide
Format: binding
Conditions: for fold change: vehicle control = 1

In the case of `NCCOCCOCC(=O)Nc1nc2ncc(CNc3ccc(C(=O)NC(CCC(=O)O)C(=O)O)cc3)nc2c(=O)[nH]1` (stereo not drawn) [compound 6], the fold change (protein LMJF.28.0710 HYPOTHETICAL PROTEIN, CONSERVED (SNARE associated Golgi protein, putative)) is reported as 1, the “fold change vs vehicle control” value (protein LMJF.28.0930 HY[…], CONSERVED) is reported as 1.01 and the “fold change vs vehicle control” value (protein LMJF.28.0960 40S RIBOSOMAL PROTEIN S14) is reported as 1.09. For the same compound, the “fold change vs vehicle control” value (protein LMJF.28.1530 ATP DEPENDENT DEAD-BOX HELICASE, PUTATIVE) was 0.91, the “fold change relative to vehicle control” value (protein LMJF.28.1730, PROTEASOME REGULATORY NON-ATP-ASE SUBUNIT 2, PUTATIVE) was 1.1 and the “fold change relative to vehicle control” value (protein LMJF.28.2310, EUKARYOTIC TRANSLATION INITIATION FACTOR, PUTATIVE) was 1.1. The “fold change vs vehicle control” value (protein LMJF.28.2430 VACUOLAR ATP SYNTHASE SUBUNIT B, PUTATIVE) was 0.97, the “fold change relative to vehicle control” value (protein LMJF.28.2770, HEAT-SHOCK PROTEIN HSP70, PUTATIVE) was 1.35 and the fold change (protein LMJF.28.2910 GLUTAMATE DEHYDROGENASE, PUTATIVE) was 0.9. The “fold change vs vehicle control” value (protein LMJF.29.0120 PROTEASOME REGULATORY NON-ATPASE SUBUNIT, PUTATIVE) was 1, the fold change (protein LMJF.29.0620 ATP-BINDING CASSETTE PROTEIN SUBFAMILY A, MEMBER 10, PUTATIVE) was 0.81 and the “fold change vs vehicle control” value (protein LMJF.29.0760 […] BI[…], PUTATIVE,HEAT SHOCK PROTEIN 90, PUTATIVE) was 1.05. For the same compound, the “fold change relative to vehicle control” value (protein LMJF.29.0850, HIGH MOBILITY GROUP PROTEIN HOMOLOG TDP-1, PUTATIVE) was 1.17, the “fold change vs vehicle control” value (protein LMJF.29.0940 HY[…], CONSERVED) was 1.19 and the “fold change vs vehicle control” value (protein LMJF.29.1160 TRYPAREDOXIN) was 0.8. For the same compound, the “fold change vs vehicle control” value (protein LMJF.29.1240 HYPOTHETICAL PROTEIN, UNKNOWN FUNCTION) was 0.95, the “fold change vs vehicle control” value (protein LMJF.29.1270 100 kDa heat shock protein (Hsp100)) was 1.02 and the “fold change vs vehicle control” value (protein LMJF.29.1310 CARNITINE/CHOLINE ACETYLTRANSFERASE, PUTATIVE) was 1.07. The “fold change relative to vehicle control” value (protein LMJF.29.1760, PAR[…] PROTEIN 1D, PUTATIVE) was 1.02, the “fold change vs vehicle control” value (protein LMJF.29.1780 DIPHTHAMIDE SYNTHESIS PROTEIN, PUTATIVE) was 0.96 and the fold change (protein LMJF.29.2200 GTP-BINDING PROTEIN, PUTATIVE (dynamin-1-like protein)) was 1.03. The fold change (protein LMJF.29.2310 ENOYL-COA HYDRATASE/ISOMERASE-LIKE PROTEIN) was 0.99, the “fold change vs vehicle control” value (protein LMJF.29.2360 ASPARTYL AMINOPEPTIDASE, PUTATIVE,METALLO-PEPTIDASE, CLAN MH, FAMILY M20) was 0.95 and the fold change (protein LMJF.29.2860 40S RIBOSOMAL PROTEIN S19-LIKE PROTEIN) was 1.12. The fold change (protein LMJF.30.0580 HY[…], CONSERVED (AMP-binding enzyme, putative)) was 1.03, the fold change (protein LMJF.30.0850 SURFACE PROTEIN AMASTIN, PUTATIVE) was 0.98 and the “fold change vs vehicle control” value (protein LMJF.30.1250 PYRIDOXAL KINASE, PUTATIVE) was 1.24. For the same compound, the “fold change vs vehicle control” value (protein LMJF.30.2580 RETICULON DOMAIN PROTEIN, 22 KDA POTENTIALLY AGGRAVATING PROTEIN (PAPLE22)) was 0.95, the “fold change relative to vehicle control” value (protein LMJF.30.3090, HY[…], CONSERVED (RNA-binding protein 42, putative)) was 1.16 and the “fold change vs vehicle control” value (protein LMJF.30.3240 GLUTAMYL-TRNA SYNTHETASE, PUTATIVE) was 1.11. It also gave a fold change (protein LMJF.30.3380 PAS-DOMAIN CONTAINING PHOSPHOGLYCERATE KINASE, PUTATIVE) of 0.84, a fold change (protein LMJF.30.3430 HY[…], CONSERVED (protein mkt1, putative)) of 1.04 and a fold change (protein LMJF.30.3520 S-ADENOSYLMETHIONINE SYNTHETASE) of 0.86. For the same compound, the fold change (protein LMJF.30.3570 ZINC FINGER-DOMAIN PROTEIN, PUTATIVE) was 0.86, the “fold change relative to vehicle control” value (protein LMJF.31.0080, HYPOTHETICAL PROTEIN, CONSERVED) was 1.2 and the “fold change vs vehicle control” value (protein LMJF.31.0340 AMINO ACID PERMEASE, PUTATIVE) was 1.17. For the same compound, the fold change (protein LMJF.31.1130 N-ACYL-L-AMINO ACID AMIDOHYDROLASE, PUTATIVE) was 0.98, the “fold change vs vehicle control” value (protein LMJF.31.1640 THIOLASE PROTEIN-LIKE PROTEIN) was 1.09 and the “fold change relative to vehicle control” value (protein LMJF.31.2150, PROSTAGLANDIN F2-ALPHA SYNTHASE/D-ARABINOSE DEHYDROGENASE) was 1.02. The “fold change vs vehicle control” value (protein LMJF.31.2250 3,2-TRANS-ENOYL-COA ISOMERASE, MIT[…], PUTATIVE) was 0.97, the “fold change vs vehicle control” value (protein LMJF.32.0750 RNA BINDING PROTEIN, PUTATIVE) was 1.19 and the “fold change vs vehicle control” value (protein LMJF.32.1060 DYNEIN, PUTATIVE) was 0.96. For the same compound, the “fold change relative to vehicle control” value (protein LMJF.32.1820, IRON […], PUTATIVE) was 1.08, the “fold change relative to vehicle control” value (protein LMJF.32.2320, C-14 STEROL REDUCTASE, PUTATIVE) was 1.02 and the “fold change relative to vehicle control” value (protein LMJF.32.2950, NUCLEOSIDE DIPHOSPHATE KINASE B) was 0.94. For the same compound, the “fold change vs vehicle control” value (protein LMJF.32.3870 MYOSIN XXI) was 0.97, the “fold change relative to vehicle control” value (protein LMJF.33.0240, THIOL-DEPENDENT REDUCTASE 1) was 1.18 and the fold change (protein LMJF.33.0280 HYPOTHETICAL PROTEIN, CONSERVED) was 0.92. For the same compound, the “fold change relative to vehicle control” value (protein LMJF.33.0890, HY[…], CONSERVED) was 1.01, the “fold change vs vehicle control” value (protein LMJF.33.1070 HY[…], UNKNOWN FUNCTION) was 1.07 and the “fold change vs vehicle control” value (protein LMJF.33.1330 CYSTEINE CONJUGATE BETA-LYASE, AMINOTRANSFERASE- LIKE PROTEIN) was 1.04. The fold change (protein LMJF.33.1590 HYPOTHETICAL PROTEIN, CONSERVED (3-ketoacyl-CoA reductase, putative)) was 0.97, the “fold change relative to vehicle control” value (protein LMJF.33.1860, ATP-BINDING CASSETTE PROTEIN SUBFAMILY D, MEMBER 3, PUTATIVE) was 1.15 and the “fold change relative to vehicle control” value (protein LMJF.33.2340, SUCCINYL-COA:3-KETOACID-COENZYME A TRANSFERASE, MIT[…], PUTATIVE) was 1.18. For the same compound, the “fold change relative to vehicle control” value (protein LMJF.33.2440, HY[…], CONSERVED) was 1.19, the “fold change relative to vehicle control” value (protein LMJF.33.2540, CARBOXYPEPTIDASE, PUTATIVE,METALLO-PEPTIDASE, CLAN MA(E), FAMILY M32) was 1.79 and the fold change (protein LMJF.33.3150 40S RIBOSOMAL PROTEIN S13, PUTATIVE) was 0.88. The “fold change relative to vehicle control” value (protein LMJF.34.0140, MALATE DEHYDROGENASE) was 1.47, the “fold change vs vehicle control” value (protein LMJF.34.0440 RIBOSOMAL PROTEIN S25) was 1.1 and the “fold change relative to vehicle control” value (protein LMJF.34.2580, HY[…], CONSERVED (ALBA-domain protein 3)) was 1.11. The “fold change relative to vehicle control” value (protein LMJF.34.3250, PUTATIVE PYRUVATE/INDOLE-PYRUVATE CARBOXYLASE, PUTATIVE) was 0.98, the fold change (protein LMJF.34.4370 20S […] 7 SUBUNIT, (PUTATIVE)) was 0.96 and the “fold change vs vehicle control” value (protein LMJF.34.4620 HY[…], CONSERVED) was 1.01. For the same compound, the fold change (protein LMJF.35.0070 PROHIBITIN, PUTATIVE) was 1.04, the “fold change vs vehicle control” value (protein LMJF.35.0360 ENOYL-COA HYDRATASE/ISOMERASE FAMILY PROTEIN, CONSERVED) was 1.24 and the fold change (protein LMJF.35.0370 ATP-DEPENDENT DEAD-BOX RNA HELICASE, PUTATIVE) was 1.08.
